Data as given in patent publication US11970439B1, “8-(4-chlorobenzylideneamino)naphthalene-1,3-disulfonic acid as an antioxidant compound” (KING FAISAL UNIVERSITY, priority 2023, dated 2024).

Test: DPPH radical scavenging antioxidant test
Type: biochemical
Conditions: 517 nm; for Inhibition (radical scavenging inhibition): compound 3 μM in ethanol, 0.2 mL DPPH (0.75 mM), 30 min incubation in the dark
Experimental: The antioxidant properties of the 8-(4-chlorobenzylideneamino)naphthalene-1,3-disulfonic acid were studied by adding 0.2 mL DPPH (0.75 mM)) to compound 8-(4-chlorobenzylideneamino)naphthalene-1,3-disulfonic acid (III) (3 μM) in ethanol. After 30 min of incubation in the dark, the absorbance was read against a blank at 517 nm. Ascorbic acid (vitamin C) was used as standard antioxidants (positive control). A blank sample was prepared by 0.2 ml of DPPH in 3 ml ethanol. A negative control sample was run using ethanol instead of the sample. The radical scavenging inhibition was calculated using the following equation: […]

| Compound | Inhibition (radical scavenging inhibition) | antioxidant potential in DPPH in vitro test (in words) (DPPH, vitamin C as positive control) |
| --- | --- | --- |
| O=C1O[C@H]([C@@H](O)CO)C(O)=C1O [vit c, Ascorbic acid, reference compound] | 74% |  |
| O=S(=O)(O)c1cc(S(=O)(=O)O)c2c(/N=C/c3ccc(Cl)cc3)cccc2c1 [Product III, 8-(4-chlorobenzylideneamino)naphthalene-1,3-disulfonic acid] | 50% | high potential as an antioxidant compared to vitamin C |
